Assay results published in patent US20100010082A1, “FORMULATIONS FOR TREATING EYE DISORDERS” (Aspreva International Ltd., priority 2008, published 2010).
Where two headings read alike, the source gives them in different places. Marks after values point to notes of the source that are not given here.

Columns and labels:
[1] = tested on: Scopolamine Induced Dry Eye in C57BL/6 Mice; test: Scopolamine induced dry eye model; format: in vivo, Mus musculus; settings: by the end of the study (Day 13)
Protocol: This dry eye model was based on that described in De Paiva et al., 2006, Investigative Opthalmology & Visual Science 47(7):2847-2856, incorporated herein by reference. The study consisted of seven groups of 10 female C57BL/6 mice each. Starting on Day 0, mice of Groups 1-6 were treated four times-daily (QID) with topical bilateral ocular (OU) administration of control or test articles at intervals of at least two hours. […] Mice in Group 7 served as untreated controls. On Day 3, scopolamine patches were placed on the tails of the mice and replaced every other day (Q2D) thereafter. From Days 3-12, mice were maintained in an environment with high-volume air draft (see Environmental stress section, below). […]
For each day of administration, mice were briefly restrained. […] Following patch application, animals were monitored for any adverse reactions, including the condition of the tail and Vetwrap®. […]
Slit Lamp Corneal Examinations. Both eyes of each animal were evaluated via a slit lamp ophthalmic examination using topically-applied fluorescein. Fluorescein dye was used to examine the surface of the cornea and scored.
Pathology. […] A board-certified veterinary pathologist evaluated slides via light microscopy. […]
Eyes were serially sectioned and examined. The representative corneas were scored based upon a 0-4 scale, with 0 being normal, 1 being minimal, 2 being mild, 3 being moderate, and 4 being severe. […]

[2] = tested on: Con-A-induced dry eye in NZW rabbits; test: Con A induced dry eye model, Tear Break-up Test (TBUT); format: in vivo, Oryctolagus cuniculus
[3] = tested on: Bovine Ocular Melanin Induced Uveitis in Lewis Rats
[4] = CellCept® label / Myfortic® label; cited from earlier work
[5] = Days 17/18, pooled average (+/−SEM) of both eyes
[6] = Days 19/20, pooled average (+/−SEM) of both eyes
[7] = Days 26/27, pooled average (+/−SEM) of both eyes
[8] = Days 28/29, pooled average (+/−SEM) of both eyes
[9] = Days −2/−1 (before immunization and dosing)

With `C[C@@H]1C[C@H]2[C@@H]3CCC4=CC(=O)C=C[C@]4(C)[C@@]3(F)[C@@H](O)C[C@]2(C)[C@@]1(O)C(=O)CO` [dexamethasone] the “weight loss relative to other groups” value [1] was “approx. 20%”, the “TBUT, post-hoc Tukey P vs. Vehicle” value ([2]; D6 (before Con A injection on Day 8)) was <0.01 and the “TBUT, post-hoc Tukey P vs. Vehicle” value ([2]; D9) was <0.05. For the same compound, the “TBUT, post-hoc Tukey P vs. Vehicle” value ([2]; D10) was <0.01, the “TBUT, post-hoc Tukey P vs. Vehicle” value ([2]; D14) was <0.001 and the “TBUT, post-hoc Tukey P vs. Vehicle” value ([2]; D15) was <0.01. The “TBUT, post-hoc Tukey P vs. Vehicle” value ([2]; D16) was <0.001, the “TBUT, post-hoc Tukey P vs. Vehicle” value ([2]; D17) was <0.001 and the “Hyperemia Scores (pooled)” value ([3]; Days 14/15, pooled average (+/−SEM) of both eyes) was 2.0 ±. The “Hyperemia Scores (pooled)” value [3, 5] was 2.2 ±, the “Opacity Scores (pooled)” value [3, 5] was 1.1 ± and the “Hyperemia Scores (pooled)” value [3, 6] was 3.0 ± 0.0. The “Opacity Scores (pooled)” value [3, 6] was 2.0 ± 0.0, the “Hyperemia Scores (pooled)” value [3, 7] was 1.5 ± 0.5 and the “Opacity Scores (pooled)” value [3, 7] was 1.3 ± 0.5. The “Hyperemia Scores (pooled)” value [3, 8] was 0.0*, the “Opacity Scores (pooled)” value [3, 8] was 0.0* and the “Hyperemia Scores (pooled)” value [3, 9] was 0. For the same compound, the “Opacity Scores (pooled)” value [3, 9] was 0 and the “weight loss during study” value ([3]; rat, in vivo) was “significant drug-related weight loss”.

In the case of `COc1c(C)c2c(c(O)c1C/C=C(\C)CCC(=O)OCCN1CCOCC1)C(=O)OC2` [MMF, mycophenolate mofetil], the “solubility (in words)” value [4] is listed as “only slightly soluble in water”.

In the case of `COc1c(C)c2c(c(O)c1C/C=C(\C)CCC(=O)[O-])C(=O)OC2.[Na+]` [NaMPA, sodium mycophenolic acid], the “solubility (in words)” value [4] is given as “highly soluble in aqueous solutions at physiological pH”.
